This note sets out measurements from ChEMBL document CHEMBL5233286, “Lasiodiplodiapyrones A and B, Pyrone-Preussomerin Adducts with Highly Strained Polycyclic Ring Systems from Lasiodiplodia pseudotheobromae” (J Nat Prod, 2023).

Where a SMILES comes first, the peptide text is derived from it. The star is where a group is joined. Cbz = O=C(OCc1ccccc1)*

For this assay, the system named is RAW264.7. The experiment in a line: Anti-inflammatory activity against mouse RAW264.7 cells assessed as inhibition of LPS-induced NO production pretreated with compound for 2 hrs followed by LPS stimulation for 12 hrs by Griess reagent based analysis. Format: functional, cell-based.
With `O=C1C[C@@H](O)[C@]23Oc4cccc5c4[C@](CC[C@@H]5O)(Oc4ccc(O)c1c42)O3`, the IC50 stood at 12.8 µM.
Take `Cc1cc2c(c(=O)o1)[C@@H]1[C@H](O2)[C@H](O)c2c(O)ccc3c2[C@@]12Oc1cccc4c1[C@](C=C[C@@H]4O)(O3)O2`: the IC50 worked out at 8.5 µM.
As for `Oc1ccc2c3c1[C@@H](O)[C@H]1O[C@H]1[C@]31Oc3cccc4c3[C@](CC[C@@H]4O)(O2)O1`, the figure is 5.9 µM; as for `CC(C)C[C@@H](C=O)NC(=O)[C@H](CC(C)C)NC(=O)[C@H](CC(C)C)NC(=O)OCc1ccccc1` [MG-132] (Cbz-Leu-Leu-Leu-aldehyde), 2.6 µM; as for `Cc1cc2c(c(=O)o1)[C@@H]1[C@H](O2)[C@H](O)c2c(O)ccc3c2[C@@]12Oc1cccc4c1[C@](CC[C@@H]4O)(O3)O2`, 4.8 µM.
